From the Kinase Knowledgebase extract (Sharma et al. 2016)

What follows are compounds tested against MAPK14 (human) (UniProt Q16539) (assay: Assessment of MAPK14 Kinase Activity).
MAPK14 (human), sequence (Q16539 whole entry, looked up): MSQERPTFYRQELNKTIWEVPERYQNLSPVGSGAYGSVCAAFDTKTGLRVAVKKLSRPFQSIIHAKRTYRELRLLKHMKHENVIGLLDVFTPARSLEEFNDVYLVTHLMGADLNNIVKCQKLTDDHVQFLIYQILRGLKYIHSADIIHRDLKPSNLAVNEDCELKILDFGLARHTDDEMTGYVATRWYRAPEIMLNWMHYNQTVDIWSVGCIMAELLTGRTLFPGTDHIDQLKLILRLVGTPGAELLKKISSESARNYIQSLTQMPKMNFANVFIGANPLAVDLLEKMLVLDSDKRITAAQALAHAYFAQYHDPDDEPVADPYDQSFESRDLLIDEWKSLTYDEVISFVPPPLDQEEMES

IC50, 0.1 to 1 µM:
CCc1ccc(-c2cc(NC(=O)Nc3sc(C(C)(C)C)cc3C(=O)N3CCN(CCN(C)C)C(=O)C3(C)C)ccc2C)cn1
Cc1ccc(NC(=O)Nc2sc(C(C)(C)C)cc2C(=O)N2CCN(C(=O)CN(C)C)CC2)cc1-c1cccnc1

IC50, < 0.1 µM:
Cc1ccc(NC(=O)Nc2sc(C(C)(C)C)cc2C(=O)N2CCN(C)C(=O)C2(C)C)cc1-c1cnc(NCC(O)CO)nc1 (stereo unspecified)
Cc1ccc(NC(=O)Nc2sc(C(C)(C)C)cc2C(=O)N2CCNC(=O)C2(C)C)cc1-c1cccnc1
CCNC(=O)c1ccc(-c2cc(NC(=O)Nc3cc(C(C)(C)C)sc3C(=O)N3CCN(C)C(=O)C3(C)C)ccc2C)cn1
Cc1ccc(NC(=O)Nc2sc(C(C)(C)C)cc2C(=O)N2CCNC(=O)C2(C)C)cc1-c1ccc(OCCN2CCNCC2)nc1
Cc1ccc(-c2cc(NC(=O)Nc3sc(C(C)(C)C)cc3C(=O)N3CCNC(=O)C3(C)C)ccc2C)nn1
Cc1ccc(NC(=O)Nc2sc(C(C)(C)C)cc2C(=O)N2CCNC(=O)C2(C)C)cc1C#CCOC1CCOCC1
Cc1ccc(NC(=O)Nc2sc(C(C)(C)C)cc2C(=O)N2CCN(C)C(=O)C2(C)C)cc1-c1ccc(CN2CCCC2)nc1
CC(C)(C)c1cc(C(=O)N2CCNC(=O)C2(C)C)c(NC(=O)Nc2cccc(-c3ccc(OCCCc4ccccn4)nc3)c2)s1
Cc1ccc(NC(=O)Nc2cc(C(C)(C)C)sc2C(=O)N2CCN(C)C(=O)C2(C)C)cc1-c1ccc(CN2CCOCC2)nc1
Cc1ccc(NC(=O)Nc2sc(C(C)(C)C)cc2C(=O)N2CCNC(=O)C2(C)C)cc1-c1c(C)noc1C
Cc1ccc(NC(=O)Nc2sc(C(C)(C)C)cc2C(=O)N2CCNC(=O)C2(C)C)cc1-c1ccc(F)nc1
CCN(CC)Cc1ccc(-c2cc(NC(=O)Nc3sc(C(C)(C)C)cc3C(=O)N3CCN(C)C(=O)C3(C)C)ccc2C)cn1
Cc1ccc(NC(=O)Nc2sc(C(C)(C)C)cc2C(=O)N2CCNC(=O)C2(C)C)cc1-c1ccc(N(C)C)nc1
Cc1ccc(NC(=O)Nc2cc(C(C)(C)C)sc2C(=O)N2CCNC(=O)C2(C)C)cc1-c1ccc(N2CCOCC2)nc1
Cc1ccc(NC(=O)Nc2sc(C(C)(C)C)cc2C(=O)N2CCNC(=O)C2(C)C)cc1-c1ccc(CN2CCOCC2)nc1
Cc1ccc(NC(=O)Nc2sc(C(C)(C)C)cc2C(=O)N2CCNC(=O)C2(C)C)cc1-c1ccc(OCCN2CCCCC2)nc1
Cc1ccc(NC(=O)Nc2sc(C(C)(C)C)cc2C(=O)N2CCNC(=O)C2(C)C)cc1-c1ccc(C(C)C)nc1
Cc1ccc(NC(=O)Nc2sc(C(C)(C)C)cc2C(=O)N2CCNC(=O)C2(C)C)cc1N1C(=O)CN(C)C1=O
Cc1ncc(NC(=O)Nc2sc(C(C)(C)C)cc2C(=O)N2CCN(C)C(=O)C2(C)C)cc1C#CC1CC1
COc1ccc(-c2cc(NC(=O)Nc3cc(C(C)(C)C)sc3C(=O)N3CCN(C)C(=O)C3(C)C)ccc2C)cn1
COc1ccc(-c2cc(NC(=O)Nc3sc(C(C)(C)C)cc3C(=O)N3CCNC(=O)C3(C)C)cc(F)c2C)cn1
Cc1ccc(NC(=O)Nc2sc(C(C)(C)C)cc2C(=O)N2CCNC(=O)C2(C)C)cc1-c1ccc(N2CCOCC2)nc1
Cc1ccc(NC(=O)Nc2cc(C(C)(C)C)sc2C(=O)N2CCNC(=O)C2(C)C)cc1-c1ccc(N2CCOCC2)cn1
Cc1ccc(NC(=O)Nc2sc(C(C)(C)C)cc2C(=O)N2CCNC(=O)C2(C)C)cc1-c1ccc(OCCCc2ccccn2)nc1
Cc1ccc(NC(=O)Nc2cn(C(C)(C)C)nc2C(=O)N2CCN(C)C(=O)C2(C)C)cc1-c1ccc(N2CCOCC2)cn1
CCc1ccc(-c2cc(NC(=O)Nc3sc(C(C)(C)C)cc3C(=O)N3CCNC(=O)C3(C)C)cc(F)c2C)cn1
Cc1ccc(NC(=O)Nc2sc(C(C)(C)C)cc2C(=O)N2CCNC(=O)C2(C)C)cc1-c1ccc(C(C)O)nc1 (stereo unspecified)
COc1ccc(-c2cc(C)cc(NC(=O)Nc3sc(C(C)(C)C)cc3C(=O)N3CCNC(=O)C3(C)C)c2)cn1
CC(=O)c1ccc(-c2cc(NC(=O)Nc3sc(C(C)(C)C)cc3C(=O)N3CCNC(=O)C3(C)C)ccc2C)cn1
CCC(C)(C)c1cc(C(=O)N2CCN(C)C(=O)C2(C)C)c(NC(=O)Nc2ccc(C)c(-c3ccc(CN4CCOCC4)nc3)c2)s1
CCc1ccc(-c2cc(NC(=O)Nc3sc(C(C)(C)C)cc3C(=O)N3CCN(C)C(=O)C3(C)C)ccc2C)cn1
Cc1ccc(NC(=O)Nc2sc(C(C)(C)C)cc2C(=O)N2CCNC(=O)C2(C)C)cc1-c1cccc[n+]1[O-]
CCNC(=O)c1ccc(-c2cc(NC(=O)Nc3sc(C(C)(C)C)cc3C(=O)N3CCN(C)C(=O)C3(C)C)ccc2C)cn1
CN(C)CCCOc1ccc(-c2cccc(NC(=O)Nc3sc(C(C)(C)C)cc3C(=O)N3CCNC(=O)C3(C)C)c2)cn1
CC(=O)N1CCN(C(=O)c2cc(C(C)(C)C)sc2NC(=O)Nc2ccc(C)c(-c3cccnc3)c2)CC1
CCNC(=O)c1ccc(-c2cc(NC(=O)Nc3sc(C(C)(C)C)cc3C(=O)N3CCNC(=O)C3(C)C)ccc2C)cn1
COc1ccc(-c2cc(NC(=O)Nc3cc(C(C)(C)C)sc3C(=O)N3CCN(C)C(=O)C3(C)C)cc(F)c2C)cn1
Cc1ccc(NC(=O)Nc2sc(C(C)(C)C)cc2C(=O)N2CCN(C)C(=O)C2(C)C)cc1N1C(=O)CN(C)C1=O
Cc1ccc(NC(=O)Nc2sc(C(C)(C)C)cc2C(=O)N2CCNC(=O)C2(C)C)cc1-c1ccc(OCCCN(C)C)nc1
COc1ccc(NC(=O)Nc2sc(C(C)(C)C)cc2C(=O)N2CCNC(=O)C2(C)C)c(C)c1-c1ccncc1
Cc1ccc(NC(=O)Nc2cc(C(C)(C)C)sc2C(=O)N2CCNC(=O)C2(C)C)cc1-c1ccc(CN2CCOCC2)nc1
Cc1ccc(NC(=O)Nc2cc(C(C)(C)C)oc2C(=O)N2CCNC(=O)C2(C)C)cc1-c1ccc(OCCN(C)C)nc1
COCCOCC#Cc1cc(NC(=O)Nc2sc(C(C)(C)C)cc2C(=O)N2CCNC(=O)C2(C)C)ccc1C
Cc1ncc(NC(=O)Nc2sc(C(C)(C)C)cc2C(=O)N2CCNC(=O)C2(C)C)cc1-c1ccc(N2CCOCC2)nc1
COC(=O)CN1CCN(C(=O)c2cc(C(C)(C)C)sc2NC(=O)Nc2ccc(C)c(-c3ccncc3)c2)C(C)(C)C1=O
CCOc1ccc(-c2cc(NC(=O)Nc3sc(C(C)(C)C)cc3C(=O)N3CCN(C)C(=O)C3(C)C)ccc2C)cn1
COc1ccc(-c2cc(NC(=O)Nc3sc(C(C)(C)C)cc3C(=O)N3CCC(=O)N(C)CC3)ccc2C)cn1
Cc1ccc(NC(=O)Nc2sc(C(C)(C)C)cc2C(=O)N2CCN(C)C(=O)C2(C)C)cc1-c1ccc(OC(C)C)nc1
Cc1ccc(NC(=O)Nc2sc(C(C)(C)C)cc2C(=O)N2CCNC(=O)C2(C)C)cc1-c1cnc(N2CCOCC2)nc1
CC(C)(C)c1cc(C(=O)N2CCNC(=O)C2(C)C)c(NC(=O)Nc2cccc(-c3cnco3)c2)s1
Cc1ccc(NC(=O)Nc2oc(C(C)(C)C)cc2C(=O)N2CCNC(=O)C2(C)C)cc1-c1ccncc1
CCOc1ccc(-c2cc(NC(=O)Nc3cn(C(C)(C)C)nc3C(=O)N3CCN(C)C(=O)C3(C)C)ccc2C)cn1
COc1ccc(-c2cc(NC(=O)Nc3sc(C(C)(C)C)cc3C(=O)N3CCNC(=O)C3(C)C)ccc2C)cn1
CCc1ccc(-c2cc(NC(=O)Nc3cn(C(C)(C)C)nc3C(=O)N3CCNC(=O)C3(C)C)ccc2C)cn1
Cc1ccc(NC(=O)Nc2sc(C(C)(C)C)cc2C(=O)N2CCN(C)C(=O)C2(C)C)cc1-c1ccc(CN2CCN(C)CC2)nc1
Cc1ccc(NC(=O)Nc2sc(C(C)(C)C)cc2C(=O)N2CCN(C)C(=O)C2(C)C)cc1-c1ccc(-n2cccn2)nc1
Cc1ccc(NC(=O)Nc2sc(C(C)(C)C)cc2C(=O)N2CCN(C)C(=O)C2(C)C)cc1-c1ccc(C(N)=O)nc1
Cc1ccc(NC(=O)Nc2sc(C(C)(C)C)cc2C(=O)N2CCNC(=O)C2(C)C)cc1-c1ccc(N2CCCCC2)nc1
CCc1ccc(-c2cc(NC(=O)Nc3cc(C(C)(C)C)sc3C(=O)N3CCN(C)C(=O)C3(C)C)ccc2C)cn1
COc1ccc(-c2ccc(C)c(NC(=O)Nc3sc(C(C)(C)C)cc3C(=O)N3CCNC(=O)C3(C)C)c2)cn1
Cc1ccc(NC(=O)Nc2cn(C(C)(C)C)nc2C(=O)N2CCNC(=O)C2(C)C)cc1-c1ccc(C(C)C)nc1
COc1ccc(-c2cc(NC(=O)Nc3sc(C(C)(C)C)cc3C(=O)N3CCNC(=O)C3(C)C)c(F)cc2C)cn1
Cc1ccc(NC(=O)Nc2sc(C(C)(C)C)cc2C(=O)N2CCNC(=O)CC2)cc1-c1cnc(N2CCOCC2)nc1
Cc1c(NC(=O)Nc2sc(C(C)(C)C)cc2C(=O)N2CCNC(=O)C2(C)C)cccc1-c1ccc(N2CCOCC2)nc1
Cc1ccc(NC(=O)Nc2sc(C(C)(C)C)cc2C(=O)N2CCNC(=O)C2(C)C)cc1C#N
COc1ccc(NC(=O)Nc2sc(C(C)(C)C)cc2C(=O)N2CCNC(=O)C2(C)C)cc1-c1ccncc1
Cc1ccc(NC(=O)Nc2sc(C(C)(C)C)cc2C(=O)N2CCNC(=O)C2(C)C)cc1-c1ccc(N2CCC(N(C)C)C2)nc1 (stereo unspecified)
Cc1ccc(NC(=O)Nc2sc(C(C)(C)C)nc2C(=O)N2CCN(C)C(=O)C2(C)C)cc1-c1ccc(CN2CCOCC2)nc1
CCc1ccc(-c2cc(NC(=O)Nc3cn(C4(C)CCCC4)nc3C(=O)N3CCNC(=O)C3(C)C)ccc2C)cn1
Cc1ccc(NC(=O)Nc2sc(C(C)(C)C)cc2C(=O)N2CCN(CCN(C)C)C(=O)C2(C)C)cc1-c1cccnc1
Cc1nc(-c2cccc(NC(=O)Nc3sc(C(C)(C)C)cc3C(=O)N3CCNC(=O)C3(C)C)c2)cs1
Cc1ccc(NC(=O)Nc2sc(C(C)(C)C)cc2C(=O)N2CCN(C)C(=O)C2(C)C)cc1-c1ccc(C[N+]2([O-])CCOCC2)nc1
Cc1ccc(NC(=O)Nc2sc(C(C)(C)C)cc2C(=O)N2CCN(C)C(=O)C2(C)C)cc1-c1ccc(N2CCOCC2)nc1
COCCOc1ccc(-c2cc(NC(=O)Nc3sc(C(C)(C)C)cc3C(=O)N3CCN(C)C(=O)C3(C)C)ccc2C)cn1
